In US7601702B2, “Dutpase Inhibitors” (Medivir AB, priority 2004, dated 2009):
Values after ≈ are worked out from the molar mass of the structure shown.

Tests used:
Type in all cases: cell-based
[1] = system: Trypanosoma brucei rhodesiense STIB 900; experiment: Trypanosoma brucei whole cell assay, primary screen; details: read-out: ICo
Experimental: The bloodstream form trypomastigotes of the strains a and c are maintained in MEM medium with Earle's salts supplemented with 25 mM HEPES, 1 g/l additional glucose, 1% MEM nonessential amino acids (100×), 0.2 mM 2-mercaptoethanol, 2 mM Na-pyruvate, 0.1 mM hypoxanthine and 15% heat inactivated horse serum.
All cultures and assays are conducted at 37° C. under an atmosphere of 5% CO2 in air.
After use the stocks are kept at −20° C. For the assays, the compound is further diluted to the appropriate concentration using complete medium.
Assays are performed in 96-well microtiter plates, each well containing 100 μl of culture medium with 8×10^3 bloodstream forms with or without a serial drug dilution. The highest concentration for the test compounds is 90 μg/ml. Seven 3-fold dilutions are used covering a range from 90 μg/ml to 0.123 μg/ml. Each drug is tested in duplicate and each assay is repeated at least once. […]
10 μl of Alamar Blue (12.5 mg resazurin dissolved in 100 ml distilled water) are now added to each well and the plates incubated for another 2 hours. Then the plates are read with a Spectramax Gemini XS microplate fluorometer (Molecular Devices Cooperation, Sunnyvale, Calif., USA) using an excitation wave length of 536 nm and an emission wave length of 588 nm. Data are analysed using the microplate reader software Softmax Pro (Molecular Devices Cooperation, Sunnyvale, Calif., USA). […]

[2] = system: Trypanosoma brucei gambiense STIB 930; experiment: Trypanosoma brucei whole cell assay, secondary screen STIB 930
Experimental: The bloodstream form trypomastigotes of strain b are maintained in MEM medium with Earle's salts supplemented with 25 mM HEPES, 1 g/l additional glucose, 1% MEM non-essential aminoacids (100×), 0.2 mM 2-mercaptoethanol, 2 mM Na-pyruvate, 0.1 mM hypoxanthine, 0.05 mM bathocuproine disulphonic acid, 0.15 mM L-cysteine and 15% heat inactivated pooled human serum.
Assays are performed in 96-well microtiter plates, each well containing 100 μl of culture medium with 8×10^3 bloodstream forms with or without a serial drug dilution. The highest concentration for the test compounds is 90 μg/ml. Seven 3-fold dilutions are used covering a range from 90 μg/ml to 0.123 μg/ml. […]

T. b. brucei STIB 950 = experiment: Trypanosoma brucei whole cell assay, secondary screen STIB 950; details: STIB950
[3] = system: Leishmania donovani strain MHOM/ET/67/L82; experiment: Leishmaniasis macrophage in vitro screening model; details: amastigotes in murine macrophages, n=4
Experimental: The Leishmania donovani strain MHOM/ET/67/L82 obtained from Dr. S. Croft, London) is used. The strain is maintained in the Syrian Golden hamster. Amastigotes are collected from the spleen of an infected hamster Amastigotes are grown in axenic culture at 37° C. in SM medium (Cunningham I., J. […] Primary peritoneal macrophages from NMRI mice are collected 1 day after a macrophage production stimulation with an i.p injection of 2 ml of a 2% potato starch suspension (FLUKA, Switzerland) All cultures and assays are done at 37° C. under an atmosphere of 5% CO2 in air. […] After use the stocks are kept at -20° C. For the assays, the compound is further diluted in serum-free culture medium and finally to the appropriate concentration in complete medium. Assays are performed in sterile 16-well chamber slides (LabTek, Nalgene/Nunc Int.) To each well 100 μl of a murine macrophage suspension (4×10^5/ml) in RPMI 1640 (containing bicarbonate and HEPES) supplemented with 10% heat inactivated fetal bovine serum is added. […] Infected and non-infected macrophages are counted for the control cultures and the ones exposed to the serial drug dilutions. The infection rates are determined. The results are expressed as % reduction in parasite burden compared to control wells, and the IC50 calculated by linear regression analysis. […]

[4] = system: Leishmania donovani strain MHOM/ET/67/L82; experiment: Leishmania donovani axenic amastigote assay; details: axenic amastigotes

IC50 [3] [ng/mL]	IC50 [4] [ng/mL]	Structure (SMILES)	IC50 [1] [ng/mL]	IC50 [2] [ng/mL]	IC50 (T. b. brucei STIB 950) [ng/mL]
–	–	Nc1nc(N)nc(Nc2ccc([As]3SCC(CO)S3)cc2)n1 (centres unmarked) [melarsoprol]	1.6	4.2	2.8
325 (≈ 0.797 µM)	120 (≈ 0.294 µM)	CCCCCCCCCCCCCCCCOP(=O)([O-])OCC[N+](C)(C)C [Miltefosine]	–	–	–
